In a compilation of properties of binary mixtures (doi:10.1016/j.molliq.2014.07.002):

Assay: xn = mol fraction of the nth substance listed
Settings: 101 kPa

CN1CCCC1=O + CC[n+]1ccn(C)c1.COS(=O)(=O)[O-]
speed of sound (298.15 K, x1 = 1): 1572 m/s
viscosity (298.15 K, x1 = 1): 1.66 mPa·s
speed of sound (303.15 K, x1 = 1): 1552 m/s
viscosity (303.15 K, x1 = 1): 1.49 mPa·s
speed of sound (308.15 K, x1 = 1): 1528 m/s
viscosity (308.15 K, x1 = 1): 1.39 mPa·s

CC[n+]1ccn(C)c1.COS(=O)(=O)[O-] + CN1CCCC1=O
speed of sound (298.15 K, x1 = 0.0115): 1579 m/s
viscosity (298.15 K, x1 = 0.0115): 2.22 mPa·s
speed of sound (298.15 K, x2 = 0): 1730 m/s
viscosity (298.15 K, x2 = 0): 84 mPa·s
speed of sound (298.15 K, x2 = 0.0419): 1724 m/s
viscosity (298.15 K, x2 = 0.0419): 77 mPa·s
speed of sound (298.15 K, x2 = 0.0861): 1718 m/s
viscosity (298.15 K, x2 = 0.0861): 69 mPa·s
speed of sound (298.15 K, x2 = 0.2085): 1711 m/s
viscosity (298.15 K, x2 = 0.2085): 53.3 mPa·s
speed of sound (298.15 K, x2 = 0.3825): 1700 m/s
viscosity (298.15 K, x2 = 0.3825): 35.9 mPa·s
speed of sound (298.15 K, x2 = 0.5291): 1684 m/s
viscosity (298.15 K, x2 = 0.5291): 23.3 mPa·s
speed of sound (298.15 K, x2 = 0.6518): 1663 m/s
viscosity (298.15 K, x2 = 0.6518): 14.6 mPa·s
speed of sound (298.15 K, x2 = 0.718): 1649 m/s
viscosity (298.15 K, x2 = 0.718): 10.5 mPa·s
speed of sound (298.15 K, x2 = 0.757): 1639 m/s
viscosity (298.15 K, x2 = 0.757): 9.2 mPa·s
speed of sound (298.15 K, x2 = 0.8983): 1604 m/s
viscosity (298.15 K, x2 = 0.8983): 4.01 mPa·s
speed of sound (298.15 K, x2 = 0.9298): 1596 m/s
viscosity (298.15 K, x2 = 0.9298): 3.43 mPa·s
speed of sound (298.15 K, x2 = 0.9743): 1582 m/s
viscosity (298.15 K, x2 = 0.9743): 3.11 mPa·s
speed of sound (303.15 K, x1 = 0.0115): 1557 m/s
viscosity (303.15 K, x1 = 0.0115): 1.88 mPa·s
speed of sound (303.15 K, x2 = 0): 1718 m/s
viscosity (303.15 K, x2 = 0): 69 mPa·s
speed of sound (303.15 K, x2 = 0.0419): 1708 m/s
viscosity (303.15 K, x2 = 0.0419): 63 mPa·s
speed of sound (303.15 K, x2 = 0.0861): 1702 m/s
viscosity (303.15 K, x2 = 0.0861): 56 mPa·s
speed of sound (303.15 K, x2 = 0.2085): 1688 m/s
viscosity (303.15 K, x2 = 0.2085): 42.1 mPa·s
speed of sound (303.15 K, x2 = 0.6518): 1638 m/s
viscosity (303.15 K, x2 = 0.6518): 10.8 mPa·s
speed of sound (303.15 K, x2 = 0.718): 1622 m/s
viscosity (303.15 K, x2 = 0.718): 8.9 mPa·s
speed of sound (303.15 K, x2 = 0.757): 1610 m/s
viscosity (303.15 K, x2 = 0.757): 7.3 mPa·s
speed of sound (303.15 K, x2 = 0.8502): 1589 m/s
viscosity (303.15 K, x2 = 0.8502): 4.04 mPa·s
speed of sound (303.15 K, x2 = 0.8983): 1577 m/s
viscosity (303.15 K, x2 = 0.8983): 3.11 mPa·s
speed of sound (303.15 K, x2 = 0.9743): 1560 m/s
viscosity (303.15 K, x2 = 0.9743): 2.05 mPa·s
speed of sound (308.15 K, x2 = 0): 1707 m/s
viscosity (308.15 K, x2 = 0): 56.7 mPa·s
speed of sound (308.15 K, x2 = 0.0419): 1692 m/s
viscosity (308.15 K, x2 = 0.0419): 51.3 mPa·s
speed of sound (308.15 K, x2 = 0.0861): 1685 m/s
viscosity (308.15 K, x2 = 0.0861): 45.9 mPa·s
speed of sound (308.15 K, x2 = 0.2085): 1663 m/s
viscosity (308.15 K, x2 = 0.2085): 33.6 mPa·s
speed of sound (308.15 K, x2 = 0.3825): 1651 m/s
viscosity (308.15 K, x2 = 0.3825): 21.8 mPa·s
speed of sound (308.15 K, x2 = 0.5291): 1630 m/s
viscosity (308.15 K, x2 = 0.5291): 14 mPa·s
speed of sound (308.15 K, x2 = 0.757): 1582 m/s
viscosity (308.15 K, x2 = 0.757): 5.82 mPa·s
speed of sound (308.15 K, x2 = 0.8502): 1560 m/s
viscosity (308.15 K, x2 = 0.8502): 3.61 mPa·s
speed of sound (308.15 K, x2 = 0.8983): 1544 m/s
viscosity (308.15 K, x2 = 0.8983): 2.8 mPa·s
speed of sound (308.15 K, x2 = 0.9298): 1536 m/s
viscosity (308.15 K, x2 = 0.9298): 2.22 mPa·s
speed of sound (308.15 K, x2 = 0.9743): 1534 m/s
viscosity (308.15 K, x2 = 0.9743): 1.86 mPa·s
speed of sound (313.15 K, x1 = 0.0115): 1518 m/s
viscosity (313.15 K, x1 = 0.0115): 1.6 mPa·s
speed of sound (313.15 K, x2 = 0): 1694 m/s
viscosity (313.15 K, x2 = 0): 47.6 mPa·s
speed of sound (313.15 K, x2 = 0.0419): 1679 m/s
viscosity (313.15 K, x2 = 0.0419): 42.8 mPa·s
speed of sound (313.15 K, x2 = 0.2085): 1644 m/s
viscosity (313.15 K, x2 = 0.2085): 27.7 mPa·s
speed of sound (313.15 K, x2 = 0.3825): 1632 m/s
viscosity (313.15 K, x2 = 0.3825): 17.7 mPa·s
speed of sound (313.15 K, x2 = 0.5291): 1614 m/s
viscosity (313.15 K, x2 = 0.5291): 11.5 mPa·s
speed of sound (313.15 K, x2 = 0.6518): 1593 m/s
viscosity (313.15 K, x2 = 0.6518): 8.2 mPa·s
speed of sound (313.15 K, x2 = 0.718): 1579 m/s
viscosity (313.15 K, x2 = 0.718): 6.07 mPa·s
speed of sound (313.15 K, x2 = 0.757): 1566 m/s
viscosity (313.15 K, x2 = 0.757): 5.22 mPa·s
speed of sound (313.15 K, x2 = 0.8502): 1545 m/s
viscosity (313.15 K, x2 = 0.8502): 3.27 mPa·s
speed of sound (313.15 K, x2 = 0.8983): 1528 m/s
viscosity (313.15 K, x2 = 0.8983): 2.56 mPa·s
speed of sound (313.15 K, x2 = 0.9298): 1524 m/s
viscosity (313.15 K, x2 = 0.9298): 2.11 mPa·s
speed of sound (313.15 K, x2 = 0.9743): 1522 m/s
viscosity (313.15 K, x2 = 0.9743): 1.73 mPa·s

CCCC[n+]1ccn(C)c1.[Cl-] + CN1CCCC1=O
speed of sound (298.15 K, x1 = 0.0138): 1575 m/s
speed of sound (298.15 K, x2 = 0): 1874 m/s
speed of sound (298.15 K, x2 = 0.0396): 1853 m/s
speed of sound (298.15 K, x2 = 0.0814): 1837 m/s
speed of sound (298.15 K, x2 = 0.1986): 1800 m/s
speed of sound (298.15 K, x2 = 0.3683): 1755 m/s
speed of sound (298.15 K, x2 = 0.5125): 1723 m/s
speed of sound (298.15 K, x2 = 0.704): 1670 m/s
speed of sound (298.15 K, x2 = 0.7466): 1656 m/s
speed of sound (298.15 K, x2 = 0.8415): 1625 m/s
speed of sound (298.15 K, x2 = 0.8939): 1606 m/s
speed of sound (298.15 K, x2 = 0.9721): 1579 m/s
speed of sound (303.15 K, x1 = 0.0138): 1555 m/s
speed of sound (303.15 K, x2 = 0): 1865 m/s
speed of sound (303.15 K, x2 = 0.01): 1860 m/s
speed of sound (303.15 K, x2 = 0.0396): 1844 m/s
speed of sound (303.15 K, x2 = 0.0814): 1829 m/s
speed of sound (303.15 K, x2 = 0.1986): 1790 m/s
speed of sound (303.15 K, x2 = 0.6367): 1674 m/s
speed of sound (303.15 K, x2 = 0.704): 1655 m/s
speed of sound (303.15 K, x2 = 0.8415): 1609 m/s
speed of sound (303.15 K, x2 = 0.8939): 1588 m/s
speed of sound (303.15 K, x2 = 0.9721): 1562 m/s
speed of sound (308.15 K, x1 = 0.0138): 1531 m/s
speed of sound (308.15 K, x2 = 0): 1855 m/s
speed of sound (308.15 K, x2 = 0.01): 1848 m/s
speed of sound (308.15 K, x2 = 0.0814): 1819 m/s
speed of sound (308.15 K, x2 = 0.1986): 1779 m/s
speed of sound (308.15 K, x2 = 0.5125): 1688 m/s
speed of sound (308.15 K, x2 = 0.6367): 1654 m/s
speed of sound (308.15 K, x2 = 0.7466): 1621 m/s
speed of sound (308.15 K, x2 = 0.8939): 1568 m/s
speed of sound (308.15 K, x2 = 0.9254): 1556 m/s
speed of sound (308.15 K, x2 = 0.9721): 1539 m/s
speed of sound (313.15 K, x1 = 0.0138): 1527 m/s
speed of sound (313.15 K, x2 = 0): 1827 m/s
speed of sound (313.15 K, x2 = 0.0814): 1796 m/s
speed of sound (313.15 K, x2 = 0.1986): 1760 m/s
speed of sound (313.15 K, x2 = 0.5125): 1674 m/s
speed of sound (313.15 K, x2 = 0.704): 1623 m/s
speed of sound (313.15 K, x2 = 0.7466): 1611 m/s
speed of sound (313.15 K, x2 = 0.8939): 1559 m/s
speed of sound (313.15 K, x2 = 0.9254): 1552 m/s
speed of sound (313.15 K, x2 = 0.9721): 1536 m/s

CN1CCCC1=O + CCCC[n+]1ccn(C)c1.[Cl-]
speed of sound (308.15 K, x1 = 1): 1528 m/s
speed of sound (313.15 K, x1 = 1): 1520 m/s
